Measurements as given in US7022667B2, “O-derivatized nocathiacin derivatives” (Bristol-Myers Squibb Company, priority 2002, dated 2006).
Converted amounts (≈) assume the structure as drawn.

How the values were obtained:
Assay in all cases: MIC, broth micro dilution assay (NCCLS)
Format in all cases: cell-based
[1] = tested on: Enterococcus faecalis A20688; conditions: Mueller-Hinton medium, 35° C., 18 hours
Description: (§1) The serial broth dilution method used Mueller-Hinton medium except for the Streptococcus pneumoniae which was tested in 50% Mueller-Hinton medium and 50% Todd Hewitt medium. The final bacterial inoculate contained approximately 5×10^5 cfu/well and was run on microtiter plates. The volume of each well was 100 μL and the plates were incubated at 35° C. for 18 hours in ambient air. The MIC was defined as the lowest drug concentration that prevented visible growth.

[2] = tested on: Streptococcus pneumoniae A28272; conditions: 50% Mueller-Hinton medium and 50% Todd Hewitt medium, 35° C., 18 hours
Description: as §1

[3] = tested on: Staphylococcus aureus A15090; conditions: Mueller-Hinton medium, 35° C., 18 hours
Description: as §1

Question: With `C=C(NC(=O)c1csc(-c2nc3c(cc2OC)-c2nc(cs2)C(=O)NC(C(C)O)C(=O)NC(=C(C)OC)c2nc(cs2)C(=O)NC2c4nc(cs4)C(=O)NC(COC(=O)c4c5c6c(cccc6n4O)COC(=O)C(OC4CC(C)(O)C(N(C)C)C(C)O4)C2OC5)c2nc-3cs2)n1)C(N)=O` (stereo not drawn) [Example 1] as the molecule, how does the “MIC (μg/mL) Enterococcus faecalis A20688” value [1] read?
Answer: 0.015 µg/mL (≈ 0.0103 µM)

Question: And the “MIC (μg/mL) Streptococcus pneumoniae A28272” value [2]?
Answer: 0.003 µg/mL (≈ 0.00207 µM)

Question: And the “MIC (μg/mL) Staphylococcus aureus A15090” value [3]?
Answer: 0.015 µg/mL (≈ 0.0103 µM)

Question: What does the source list for `C=C(NC(=O)c1csc(-c2nc3c(cc2OCC(O)CO)-c2nc(cs2)C(=O)NC(C(C)O)C(=O)NC(=C(C)OC)c2nc(cs2)C(=O)NC2c4nc(cs4)C(=O)NC(COC(=O)c4c5c6c(cccc6n4O)COC(=O)C(OC4CC(C)(O)C(N(C)C)C(C)O4)C2OC5)c2nc-3cs2)n1)C(N)=O` (stereo not drawn) [Example 3]?
Answer: MIC (μg/mL) Enterococcus faecalis A20688 [1]: 2.0 µg/mL (≈ 1.32 µM); MIC (μg/mL) Streptococcus pneumoniae A28272 [2]: 0.25 µg/mL (≈ 0.165 µM); MIC (μg/mL) Staphylococcus aureus A15090 [3]: 1.0 µg/mL (≈ 0.662 µM)

Question: With `C=C(NC(=O)c1csc(-c2nc3c(cc2O)-c2nc(cs2)C(=O)NC(C(C)O)C(=O)NC(=C(C)OC)c2nc(cs2)C(=O)NC2c4nc(cs4)C(=O)NC(COC(=O)c4c5c6c(cccc6n4OC)COC(=O)C(OC4CC(C)(O)C(N(C)C)C(C)O4)C2OC5)c2nc-3cs2)n1)C(N)=O` (stereo not drawn) [Example 6] as the molecule, how does the “MIC (μg/mL) Enterococcus faecalis A20688” value [1] read?
Answer: 0.125 µg/mL (≈ 0.0861 µM)

Question: What about the “MIC (μg/mL) Streptococcus pneumoniae A28272” value [2] of the same molecule?
Answer: 0.003 µg/mL (≈ 0.00207 µM)

Question: What about the “MIC (μg/mL) Staphylococcus aureus A15090” value [3] of the same molecule?
Answer: 0.03 µg/mL (≈ 0.0207 µM)

Question: For `C=C(NC(=O)c1csc(-c2nc3c(cc2O)-c2nc(cs2)C(=O)NC(C(C)O)C(=O)NC(=C(C)OC)c2nc(cs2)C(=O)NC2c4nc(cs4)C(=O)NC(COC(=O)c4c5c6c(cccc6n4OCCCS(=O)(=O)[O-])COC(=O)C(OC4CC(C)(O)C(N(C)C)C(C)O4)C2OC5)c2nc-3cs2)n1)C(N)=O.[Na+]` (stereo not drawn) [Example 7], which “MIC (μg/mL) Enterococcus faecalis A20688” value [1] is on record?
Answer: 0.125 µg/mL

Question: What about the “MIC (μg/mL) Streptococcus pneumoniae A28272” value [2] of the same molecule?
Answer: 0.007 µg/mL

Question: And the “MIC (μg/mL) Staphylococcus aureus A15090” value [3]?
Answer: 0.125 µg/mL

Question: With `C=C(NC(=O)c1csc(-c2nc3c(cc2O)-c2nc(cs2)C(=O)NC(C(C)O)C(=O)NC(=C(C)OC)c2nc(cs2)C(=O)NC2c4nc(cs4)C(=O)NC(COC(=O)c4c5c6c(cccc6n4OCC(N)=O)COC(=O)C(OC4CC(C)(O)C(N(C)C)C(C)O4)C2OC5)c2nc-3cs2)n1)C(N)=O` (stereo not drawn) [Example 8] as the molecule, how does the “MIC (μg/mL) Enterococcus faecalis A20688” value [1] read?
Answer: 0.25 µg/mL (≈ 0.167 µM)

Question: And the “MIC (μg/mL) Streptococcus pneumoniae A28272” value [2]?
Answer: 0.03 µg/mL (≈ 0.0201 µM)

Question: What about the “MIC (μg/mL) Staphylococcus aureus A15090” value [3] of the same molecule?
Answer: 0.5 µg/mL (≈ 0.335 µM)

Question: For `C=C(NC(=O)c1csc(-c2nc3c(cc2OCC(N)=O)-c2nc(cs2)C(=O)NC(C(C)O)C(=O)NC(=C(C)OC)c2nc(cs2)C(=O)NC2c4nc(cs4)C(=O)NC(COC(=O)c4c5c6c(cccc6n4OCC(N)=O)COC(=O)C(OC4CC(C)(O)C(N(C)C)C(C)O4)C2OC5)c2nc-3cs2)n1)C(N)=O` (stereo not drawn) [Example 9], which “MIC (μg/mL) Enterococcus faecalis A20688” value [1] is on record?
Answer: 4.0 µg/mL (≈ 2.58 µM)

Question: And the “MIC (μg/mL) Streptococcus pneumoniae A28272” value [2]?
Answer: 0.125 µg/mL (≈ 0.0806 µM)

Question: What about the “MIC (μg/mL) Staphylococcus aureus A15090” value [3] of the same molecule?
Answer: 2.0 µg/mL (≈ 1.29 µM)

Question: What does the source list for `C=C(NC(=O)c1csc(-c2nc3c(cc2O)-c2nc(cs2)C(=O)NC(C(C)O)C(=O)NC(=C(C)OC)c2nc(cs2)C(=O)NC2c4nc(cs4)C(=O)NC(COC(=O)c4c5c6c(cccc6n4OCc4ccc(C(=O)OC6CCCCO6)cc4)COC(=O)C(OC4CC(C)(O)C(N(C)C)C(C)O4)C2OC5)c2nc-3cs2)n1)C(N)=O` (stereo not drawn) [Example 10]?
Answer: MIC (μg/mL) Enterococcus faecalis A20688 [1]: 0.5 µg/mL (≈ 0.302 µM); MIC (μg/mL) Streptococcus pneumoniae A28272 [2]: 0.015 µg/mL (≈ 0.00906 µM); MIC (μg/mL) Staphylococcus aureus A15090 [3]: 0.5 µg/mL (≈ 0.302 µM)

Question: With `C=C(NC(=O)c1csc(-c2nc3c(cc2O)-c2nc(cs2)C(=O)NC(C(C)O)C(=O)NC(=C(C)OC)c2nc(cs2)C(=O)NC2c4nc(cs4)C(=O)NC(COC(=O)c4c5c6c(cccc6n4OCc4ccc(C(=O)O)cc4)COC(=O)C(OC4CC(C)(O)C(N(C)C)C(C)O4)C2OC5)c2nc-3cs2)n1)C(N)=O` (stereo not drawn) [Example 11] as the molecule, how does the “MIC (μg/mL) Enterococcus faecalis A20688” value [1] read?
Answer: >128 µg/mL

Question: And the “MIC (μg/mL) Streptococcus pneumoniae A28272” value [2]?
Answer: 0.06 µg/mL (≈ 0.0382 µM)

Question: What about the “MIC (μg/mL) Staphylococcus aureus A15090” value [3] of the same molecule?
Answer: 16 µg/mL (≈ 10.2 µM)
